Results on 13 compounds are retold here after publication PMC10299128, “The Parallel Structure–Activity Relationship Screening of Three Compounds Identifies the Common Agonist Pharmacophore of Pyrrolidine Bis-Cyclic Guanidine Melanocortin-3 Receptor (MC3R) Small-Molecule Ligands” (International Journal of Molecular Sciences, 2023).

Several values for one entry are separate records, joined by “and”; a condition that tells them apart may be missing. Identical values can stand only once. Like-named read-outs stand apart in the source and are kept apart here. Some results are limits rather than exact numbers.

Assay [1] concerns the target T1, mMC1R (Mus musculus, UniProt Q01727). Description: AlphaScreen cAMP agonist assay, HEK293 cells stably expressing mMC1R.
Protocol: (§1) Pyrrolidine bis-cyclic guanidine compounds were assessed for biological activity using the AlphaScreen cAMP kit with HEK293 cells stably expressing the mMC1R, mMC3R, mMC4R, or mMC5R, as previously described [37, 38, 39]. […] Compounds were assayed for agonist activity in a 7-point dose–response curve (10^−3 to 10^−9 M). […] The purified compounds were dissolved in DMSO at a stock concentration of 10^−1 M and assayed using HEK293 cells stably expressing the mouse MC1R, MC3R, MC4R, and MC5R using the AlphaScreen cAMP bioassay (PerkinElmer, Waltham, MA, USA) according to the manufacturer’s instructions and as previously described [37, 38, 39].
(§2) Briefly, cells 70−90% confluent were dislodged with Versene (Gibco, Waltham, MA, USA) at 37 °C and 10,000 cells/well were plated in a 384-well plate (Optiplate, PerkinElmer, Waltham, MA, USA) with 10 μL of freshly prepared stimulation buffer (1× HBSS, 5 mM HEPES, 0.5 mM IBMX, 0.1% BSA, pH = 7.4) with 0.5 μg of anti-cAMP acceptor beads per well. The cells were stimulated with the addition of 5 μL of stimulation buffer containing compound or forskolin (10^−4 M) and incubated in the dark at room temperature for 2 h. Following stimulation, streptavidin donor beads (0.5 μg) and biotinylated cAMP (0.62 μmol) were added to the wells in a green light environment with 10 μL of lysis buffer (5 mM HEPES, 0.3% Tween-20, 0.1% BSA, pH = 7.4) and the plates were incubated in the dark at room temperature for an additional 2 h. Plates were read on a Enspire (PerkinElmer, Waltham, MA, USA) Alpha plate reader using a pre-normalized assay protocol (set by the manufacturer).
For assay [2], the target named is T2, mMC3R (Mus musculus, UniProt P33033). Description: AlphaScreen cAMP agonist assay, HEK293 cells stably expressing mMC3R. The following applies: for mMC3R agonist efficacy (in words): relative to NDP-MSH, full = >90% receptor activation.
Protocol: as §1, §2
For assay [3], the target named is T2, mMC3R. Also noted: expressed in transfected cells; method as in PMID 33886285. The following applies: β-galactosidase reporter gene assay; read-out: mMC3R agonist EC50 (previously reported); cited from earlier work.
In assay [4] the target is T1, mMC1R. Further details: expressed in transfected cells; method as in PMID 33886285. The following applies: cited from earlier work.
Assay [5] has as its target T3, mMC4R (Mus musculus, UniProt P56450). The following applies: antagonist, Schild analysis with agonist NDP-MSH; mean ± SEM.
Protocol: as §1, §2
In assay [6] the target is T3, mMC4R. Description: cell-based.
Protocol: as §1, §2
Assay [7] deals with T4, mMC5R (Mus musculus, UniProt P41149). Description: AlphaScreen cAMP agonist assay, HEK293 cells stably expressing mMC5R.
Protocol: as §1, §2
In assay [8] the target is T4, mMC5R. Also noted: expressed in transfected cells; method as in PMID 33886285. The note with it: β-galactosidase reporter gene assay; read-out: mMC5R agonist EC50 (previously reported); cited from earlier work.
The target in assay [9] is T3, mMC4R. Also noted: expressed in transfected cells; method as in PMID 33886285. The following applies: with agonist MTII; cited from earlier work.
The target of assay [10] is T3, mMC4R. Further details: expressed in transfected cells; method as in PMID 33886285. The following applies: cited from earlier work; for mMC4R partial stimulation, % activation (previously reported): at 10 µM.
The target in assay [11] is T3, mMC4R. Nature of the assay: AlphaScreen cAMP agonist assay, HEK293 cells stably expressing mMC4R. The note with it: for mMC4R partial agonist efficacy bin: sigmoidal curve, efficacy <90% of NDP-MSH; for mMC4R percent maximal stimulatory response (compared to NDP-MSH): at 1 mM, not enough stimulation to determine EC50.
Protocol: as §1, §2
Assay [12] concerns MC1R. Also noted: method as in PMID 21215742. The following applies: read-out: MC1R antagonist IC50; cited from earlier work.
The subject of assay [13] is MC5R. Further details: method as in PMID 21215742. The following applies: read-out: MC5R antagonist IC50; cited from earlier work.
The target in assay [14] is mouse melanocortin-5 receptor (mouse) (UniProt P41149).
Assay [15] addresses mouse melanocortin-1 receptor (mouse) (UniProt Q01727).
Assay [16] addresses mouse melanocortin-3 receptor (mouse) (UniProt P33033).
Where [17] appears, read: at 1 mM, not enough stimulation to determine EC50.

T3 sequence (P56450 whole entry): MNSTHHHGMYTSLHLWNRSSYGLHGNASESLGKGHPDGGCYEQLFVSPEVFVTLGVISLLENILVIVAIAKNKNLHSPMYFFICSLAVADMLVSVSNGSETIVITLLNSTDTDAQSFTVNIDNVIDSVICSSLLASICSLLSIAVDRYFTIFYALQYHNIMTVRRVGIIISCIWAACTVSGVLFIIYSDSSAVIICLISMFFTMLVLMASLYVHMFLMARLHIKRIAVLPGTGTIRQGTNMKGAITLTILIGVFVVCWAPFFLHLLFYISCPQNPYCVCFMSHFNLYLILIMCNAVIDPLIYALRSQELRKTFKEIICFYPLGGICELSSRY
T1 sequence (Q01727 whole entry): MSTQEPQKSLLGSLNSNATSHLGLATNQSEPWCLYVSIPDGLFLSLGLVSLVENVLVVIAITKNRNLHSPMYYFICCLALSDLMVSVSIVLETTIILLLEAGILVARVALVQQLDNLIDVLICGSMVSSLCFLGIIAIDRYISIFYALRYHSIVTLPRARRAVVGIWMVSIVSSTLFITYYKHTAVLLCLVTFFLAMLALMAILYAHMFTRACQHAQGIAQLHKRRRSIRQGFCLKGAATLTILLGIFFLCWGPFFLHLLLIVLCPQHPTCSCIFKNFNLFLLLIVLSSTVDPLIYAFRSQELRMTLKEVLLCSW
T2 sequence (P33033 whole entry): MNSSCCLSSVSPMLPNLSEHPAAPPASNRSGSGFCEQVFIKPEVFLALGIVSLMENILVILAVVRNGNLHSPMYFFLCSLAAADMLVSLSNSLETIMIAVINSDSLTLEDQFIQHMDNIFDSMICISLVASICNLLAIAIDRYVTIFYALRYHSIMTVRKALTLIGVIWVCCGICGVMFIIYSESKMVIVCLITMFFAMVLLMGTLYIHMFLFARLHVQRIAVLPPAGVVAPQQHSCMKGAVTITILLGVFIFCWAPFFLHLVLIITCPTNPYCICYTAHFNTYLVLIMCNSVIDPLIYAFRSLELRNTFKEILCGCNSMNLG
T4 sequence (P41149 whole entry): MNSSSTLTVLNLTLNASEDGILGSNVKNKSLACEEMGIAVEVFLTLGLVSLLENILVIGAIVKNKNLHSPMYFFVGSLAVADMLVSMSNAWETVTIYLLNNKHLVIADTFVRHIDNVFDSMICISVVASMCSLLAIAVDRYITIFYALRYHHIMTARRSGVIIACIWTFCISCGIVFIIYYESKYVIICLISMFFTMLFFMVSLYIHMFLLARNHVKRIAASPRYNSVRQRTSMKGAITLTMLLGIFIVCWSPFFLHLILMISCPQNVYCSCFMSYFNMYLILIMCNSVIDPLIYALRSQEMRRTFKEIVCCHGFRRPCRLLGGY
mouse melanocortin-1 receptor (mouse), sequence (Q01727 whole entry): as the sequence (Q01727 whole entry) above
mouse melanocortin-3 receptor (mouse), sequence (P33033 whole entry): as the sequence (P33033 whole entry) above
mouse melanocortin-5 receptor (mouse), sequence (P41149 whole entry): as the sequence (P41149 whole entry) above

In the case of `CC(C)CC1CNC(=N)N1CC1CCCN1CC(Cc1ccccc1)N1CC(C(C)O)N(CC2CCC(C(C)(C)C)CC2)C1=N` (stereo not drawn) [Compound 2718.001], the EC50 is 0.32 ± 0.03 µM in assay [1]; 0.27 ± 0.02 µM in [2]; 0.31 µM in assay [3]; 0.26 ± 0.03 µM in [7]; 0.53 µM in [8]. Also, in assay [4] (at 10 µM), the “mMC1R partial stimulation, % efficacy (previously reported)” value is reported as 58%. In addition, the “mMC4R pA2” value in assay [5] is 6.0. This compound gave a Kb in assay [6] of 1 µM. The “mMC4R antagonist pA2 (previously reported)” value (“mMC4R antagonist pA2” below) in [9] is reported as 7.0. In addition, in assay [10], the “mMC4R partial stimulation, % activation (previously reported)” value is on record as 10–50%.

Turning to `CC(C)CC1CNC(=N)N1CC1CCCN1CC(CC1CCCCC1)N1CC(C(C)O)N(CC2CCC(C(C)(C)C)CC2)C1=N` (stereo not drawn) [Compound 2718.002], the EC50 was 0.27 ± 0.02 µM in assay [1]; 0.24 ± 0.008 µM in assay [2]; 0.21 µM in [3]; 0.3 µM in assay [4] (β-galactosidase reporter gene assay, read-out: mMC1R agonist EC50 (previously reported)); 0.29 ± 0.01 µM in assay [7]; 0.14 µM in assay [8]. For the same compound, the EC50 in assay [10] (partial agonist, read-out: mMC4R partial agonist EC50 (previously reported)) was 0.27 µM; in assay [11], 1.2 ± 0.3 µM. For the same compound, the “mMC4R pA2” value in assay [5] was found to be 6.2. The compound further had a Kb in assay [6] of 0.631 µM. In addition, in assay [9], the “mMC4R antagonist pA2” value is on record as 5.8. The “mMC4R partial agonist efficacy, % MTII signal (previously reported)” value in assay [10] (relative to MTII) was 45%. For the same compound, the “mMC4R partial agonist efficacy bin” value in assay [11] is “A (A (20–50% receptor activation))”.

For `CCCC1CN(C(CC2CCCCC2)CN2CCCC2CN2C(=N)NCC2C(C)C)C(=N)N1CC1CCC(C(C)(C)C)CC1` (stereo not drawn) [Compound 2718.003], the EC50 in assay [1] was 0.64 ± 0.03 µM; in assay [2], 2 ± 0.3 µM; in assay [3], 0.35 µM; in assay [7], 1.2 ± 0.2 µM; in assay [8], 0.54 µM; in assay [11], 2.5 ± 0.6 µM. The “fold decreased mMC3R potency between the previous reported values and the present study” value in assay [2] (AlphaScreen (present) vs previously reported value [29]) is reported as 6 fold. Besides, in assay [4] (at 100 µM), the “mMC1R partial stimulation (previously reported)” value is 50–90%. Also, the “mMC4R pA2” value in assay [5] is 5.9. The compound further showed a Kb in assay [6] of 1.26 µM. The “mMC4R antagonist pA2” value in [9] is recorded as 5.8. Further, the “mMC4R partial stimulation, % activation (previously reported)” value in assay [10] is listed as 50%. Further, the “mMC4R partial agonist efficacy bin” value in assay [11] is listed as “A (A (20–50% receptor activation))”.

On to `CC(C)C[C@@H]1CNC(=N)N1C[C@@H]1CCCN1C[C@@H](Cc1ccccc1)N1CCN(CC2CCC(C(C)(C)C)CC2)C1=N` (stereo partly drawn) [Compound 2718.022], for which the concentration giving a half-maximal response (EC50) in assay [1] came to 0.4 ± 0.04 µM; in assay [2], 0.38 ± 0.07 µM; in assay [7], 0.32 ± 0.01 µM. Besides, the “mMC3R agonist efficacy (in words)” value in assay [2] is on record as “full agonist efficacy”. For the same compound, the “mMC4R pA2” value in assay [5] is 6.1. In assay [6], this compound had a Kb of 0.794 µM.

As for `C[C@H](O)[C@@H]1CN([C@H](Cc2ccccc2)CN2CCC[C@H]2CN2CCNC2=N)C(=N)N1CC1CCC(C(C)(C)C)CC1` (stereo partly drawn) [Compound 2718.024], the figures for the EC50 in assay [1], in assay [2] and in [7] were 0.39 ± 0.05 µM, 3 ± 0.7 µM and 0.48 ± 0.05 µM, respectively. Besides, in assay [2] (relative to 2718.001), the “fold decreased mMC3R agonist potency” value was 11 fold and 10 fold. Further, in [2], the “mMC3R agonist efficacy (in words)” value is given as “full agonist efficacy”. Further, the “mMC4R pA2” value in assay [5] was determined as 6.3. This compound had a Kb in assay [6] of 0.501 µM. The “mMC4R percent maximal stimulatory response (compared to NDP-MSH)” value in assay [11] was 50% @ 1 mM.

As to `CC(C)C[C@@H]1CNC(=N)N1C[C@@H]1CCCN1C[C@@H](CC1CCCCC1)N1CCN(CC2CCC(C(C)(C)C)CC2)C1=N` (stereo partly drawn) [Compound 2718.025], the EC50 amounted to 0.51 ± 0.09 µM in assay [1], 1 ± 0.3 µM in assay [2] and 0.6 ± 0.1 µM in assay [7]. The “fold decreased mMC3R agonist potency” value in [2] (relative to 2718.002) was determined as 4 fold. For the same compound, the “mMC3R agonist efficacy (in words)” value in [2] is “full agonist efficacy”. Also, the “mMC4R pA2” value in [5] is 6.1. In [6], this compound showed a Kb of 0.794 µM. In addition, in assay [11], the “mMC4R percent maximal stimulatory response (compared to NDP-MSH)” value is listed as 60% @ 1 mM.

Regarding `C[C@H](O)[C@@H]1CN([C@H](CC2CCCCC2)CN2CCC[C@H]2CN2CCNC2=N)C(=N)N1CC1CCC(C(C)(C)C)CC1` (stereo partly drawn) [Compound 2718.026], the EC50 in [1] turned out to be 0.46 ± 0.03 µM; in [2] it was 2.6 ± 0.2 µM; in assay [7], 0.3 ± 0.01 µM; in assay [11], 1.8 ± 0.5 µM. The “fold decreased mMC3R agonist potency” value in [2] (relative to 2718.002) is 11 fold and 10 fold. The “mMC3R agonist efficacy (in words)” value in [2] is reported as “full agonist efficacy”. In assay [5], the “mMC4R pA2” value is 6.2. In assay [6], the Kb was 0.631 µM. In [11], the “mMC4R partial agonist efficacy bin” value is reported as “A (A (20–50% receptor activation))”.

For the compound `CC(C)[C@@H]1CNC(=N)N1C[C@@H]1CCCN1C[C@@H](CC1CCCCC1)N1CCN(CC2CCC(C(C)(C)C)CC2)C1=N` (stereo partly drawn) [Compound 2718.027], the 50% effective concentration (EC50) is 0.34 ± 0.03 µM in [1], 2.1 ± 0.2 µM in assay [2] and 0.51 ± 0.07 µM in assay [7]. Further, in assay [2], the “mMC3R agonist efficacy (in words)” value is reported as “full agonist efficacy”. In assay [6], the Kb was 0.631 µM. For the same compound, the “mMC4R percent maximal stimulatory response (compared to NDP-MSH)” value in [11] turned out to be 45% @ 1 mM.

For `CCC[C@@H]1CN([C@H](CC2CCCCC2)CN2CCC[C@H]2CN2CCNC2=N)C(=N)N1CC1CCC(C(C)(C)C)CC1` (stereo partly drawn) [Compound 2718.029], the 50% effective concentration (EC50) is 1.1 ± 0.3 µM in assay [1], 3.3 ± 0.1 µM in assay [2], 1.3 ± 0.1 µM in assay [7] and 2.9 ± 0.4 µM in [11]. In addition, the “mMC3R agonist efficacy (in words)” value in [2] is “full agonist efficacy”. Besides, the “mMC4R pA2” value in assay [5] was found to be 5.8. This compound showed a Kb in [6] of 1.58 µM. The “mMC4R partial agonist efficacy bin” value in assay [11] is on record as “B (B (51–90% receptor activation))”.

With `CCC[C@@H]1CN([C@H](CC2CCCCC2)CN2CCC[C@H]2CN2C(=N)NC[C@@H]2C(C)C)C(=N)N1CC1CCC(C(C)(C)C)CC1` (stereo partly drawn) [Compound 2718.053], the 50% effective concentration (EC50) in assay [1] came out at 1 ± 0.3 µM; in [2] it was 2.4 ± 0.2 µM; in assay [7], 2.4 ± 0.3 µM. Besides, in [2], the “mMC3R agonist efficacy (in words)” value is “full agonist efficacy”. For the same compound, the Kb in assay [6] was 1.26 µM. In addition, the “mMC4R percent maximal stimulatory response (compared to NDP-MSH)” value in assay [11] amounted to 60% @ 1 mM.

With `CC(C)CC1CNC(=N)N1CC1CCCN1CC(C)N1CC(C(C)O)N(CC2CCC(C(C)(C)C)CC2)C1=N` (stereo not drawn) [Compound 2718.061], in [1] (setting [17]), the “mMC1R percent maximal stimulatory response (compared to NDP-MSH)” value was found to be 65% @ 1 mM. The “mMC3R percent maximal stimulatory response (compared to NDP-MSH)” value in assay [2] (setting [17]) is 20% @ 1 mM. For the same compound, the “mMC5R percent maximal stimulatory response (compared to NDP-MSH)” value in [7] (setting [17]) came out at 65% @ 1 mM. In assay [11], the EC50 is > 1000 µM.

For `COc1ccccc1-c1nc(=Nc2ccccc2)sn1-c1ccccc1OC` [JNJ-10229570], the half-maximal inhibitory concentration (IC50) in assay [12] and in assay [13] was 0.2 to 0.3 µM each time.

On to NDP-MSH (peptide), for which the EC50 of agonist activity, AlphaScreen cAMP assay, HEK293 cells stably expressing mMC5R in [14] was 0.0001 µM. The same compound displayed an EC50 of agonist activity, AlphaScreen cAMP assay, HEK293 cells stably expressing mMC1R in [15] of 55 pM. Further, the EC50 of agonist activity, AlphaScreen cAMP assay, HEK293 cells stably expressing mMC3R in assay [16] is 69 pM.
